Laboratory results reported in PMC6471485, “Selective Inhibitors of a Human Prolyl Hydroxylase (OGFOD1) Involved in Ribosomal Decoding” (Chemistry (Weinheim an Der Bergstrasse, Germany), 2019).

How the values were obtained:
OGFOD1 = target: T1, OGFOD1 (Homo sapiens, UniProt Q8N543); assay: OGFOD1 inhibition assay: hydroxylation of RPS23 51-70 peptide by MALDI-TOF MS; assay type: biochemical; conditions: for selectivity for OGFOD1 over PHD2, in words: OGFOD1 and PHD2 1 µM each, 23 at 100 µM (Figure 4; Figure S6); for relative potency of OGFOD1 inhibition in barbiturate SAR, in words: OGFOD1 1 µM, inhibitors at 100, 20, 5, 1 µM (Figure S9) or 5 and 1 µM (Figure S10); for inhibition of OGFOD1 hydroxylation activity, in words: inhibitor 100 µM, OGFOD1 1 µM (Figures S1, S2); for IC50: IC50 against OGFOD1, 1 μM OGFOD1, minimum measurable IC50 0.5 μM, values for 24 and 25 regarded as preliminary; for OGFOD1 inhibition in fragment-based screening, in words: OGFOD1 1 μM (Figure 3B)
T1 sequence (Q8N543 1-542): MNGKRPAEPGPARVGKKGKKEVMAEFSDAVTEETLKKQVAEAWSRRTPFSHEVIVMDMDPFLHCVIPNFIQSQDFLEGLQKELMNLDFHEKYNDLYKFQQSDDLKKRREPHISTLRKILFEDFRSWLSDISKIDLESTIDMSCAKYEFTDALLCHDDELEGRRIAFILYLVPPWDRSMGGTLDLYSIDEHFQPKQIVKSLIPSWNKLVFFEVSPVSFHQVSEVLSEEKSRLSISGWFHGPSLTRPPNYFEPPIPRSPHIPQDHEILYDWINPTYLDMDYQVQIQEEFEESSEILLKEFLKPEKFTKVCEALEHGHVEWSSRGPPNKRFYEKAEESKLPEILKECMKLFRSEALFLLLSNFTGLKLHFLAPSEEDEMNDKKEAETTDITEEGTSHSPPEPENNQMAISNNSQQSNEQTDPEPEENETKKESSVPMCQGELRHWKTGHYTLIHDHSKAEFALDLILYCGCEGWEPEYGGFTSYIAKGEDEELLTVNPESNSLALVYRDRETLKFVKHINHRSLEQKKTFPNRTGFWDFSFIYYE
Description: (§1) OGFOD1 inhibition assays were performed by determining the extent of hydroxylation of a 20mer fragment of human ribosomal protein S23 (RPS23) containing residues 51-70 (H2N- […]
(§2) -CONH2) by matrix-assisted laser desorption/ionization time-of-flight mass spectrometry (MALDI-TOF MS) using a Waters Micromass MALDI micro MX mass spectrometer and MassLynx 4.1, as previously described.[7,8] The optimized hydroxylation assay involved incubation of OGFOD1 (1 µM) with inhibitor (1 % v/v in DMSO) in the presence of (NH4)2Fe(SO4)2 (50 µM), the disodium salt of 2-oxoglutarate (25 µM), […]
OGFOD1 was pre-incubated with inhibitor for 5 min before initiation of the reaction via the addition of the other reagents. Reactions were quenched with formic acid (1 % v/v) after 15 min. Samples were prepared for MALDI using α-cyano-4-hydrocinnamic acid (CHCA; prepared in 50 % acetonitrile) as a matrix. Dose-responses were assessed in 8-point triplicates, normalized to a no enzyme negative control and a no inhibitor positive control. Non-linear regression analysis was performed using Prism (GraphPad). […]

PHD2181-426 = target: T2, PHD2181-426 (Homo sapiens, UniProt Q9GZT9); assay: PHD2 inhibition assay: hydroxylation of HIF-1a CODD peptide by MALDI-TOF MS; assay type: biochemical; conditions: inhibitor 100 µM, PHD2181-426 1 µM (Figures S2, S8)
T2 construct: 181-426 (1 µM) was
Description: as §1, §2
OGFOD1 was pre-incubated with inhibitor for 5 min before initiation of the reaction via the addition of the other reagents. Reactions were quenched with formic acid (1 % v/v) after 15 min. Samples were prepared for MALDI using α-cyano-4-hydrocinnamic acid (CHCA; prepared in 50 % acetonitrile) as a matrix. Dose-responses were assessed in 8-point triplicates, normalized to a no enzyme negative control and a no inhibitor positive control. Non-linear regression analysis was performed using Prism (GraphPad).
PHD2181-426 inhibition assays were performed by determining the extent of hydroxylation of a HIF-1a CODD peptide substrate (HIF-1a residues 556-574), using MALDI-TOF MS as described with OGFOD1.[8] The optimized hydroxylation assay involved incubation of PHD2181-426 (1 µM) with inhibitor (1 % v/v in DMSO) in the presence of (NH4)2Fe(SO4)2 (10 µM), the disodium salt of 2-oxoglutarate (60 µM), sodium ascorbate (100 µM), and HIF-1aCODD 556-574 (50 µM) in HEPES (50 mM, pH 7.5) at 37 °C for 15 min. The FIH assay employed MALDI-TOF MS detection of hydroxylation. Reactions consisted of FIH […]
(50 nM), ankyrin peptide (50 µM; […]), the disodium salt of 2- […]
oxoglutarate (100 µM), sodium ascorbate (100 µM), and (NH4)2Fe(SO4)2 (10 µM), and […]

[1] = test system: PHD enzymes in HeLa cells; assay: HIFα Western blot in HeLa cells (activity of PHD enzymes in cells); assay type: cell-based, human; conditions: HeLa cells treated 5 h, anti-HIF-1α Western blot
Description: supplemented with 80 µM Zn(II), 70 µM of inhibitor, all in 50 mM Tris-d11, pH 7.5, 10 % D2O, […]
Cell Culture and Immunoblotting
HeLa cells were cultured in DMEM media supplemented with 10 % fetal bovine serum, 4 mM L-glutamine, 100 U/mL penicillin, and 100 µg/mL streptomycin. Cells were treated with the indicated compounds, prepared in 1% DMSO, for 5 h. Following a PBS buffer rinse, cells were lysed in urea/SDS buffer supplemented with 1 mM dithiothreitol. Cell extracts were analyzed by SDS-PAGE, electroblotted onto PVDF membranes (Millipore) and probed with anti-HIF-1α antibody (clone 54, BD Transduction Laboratories) at 1:1000 dilution for 1 h at room temperature. The HRP-conjugated secondary antibody was then applied at room temperature for 1 h. Target proteins were detected with SuperSignal Chemiluminescent […]
ADMET in vitro Predictors
S9 liver microsome stability assays and MDCK-MDR1 efflux assays were carried out for CCT3 and CCT4 by Cyprotex (UK). Additional details are provided later in the Supporting

T2 sequence (Q9GZT9 181-426 limits assumed): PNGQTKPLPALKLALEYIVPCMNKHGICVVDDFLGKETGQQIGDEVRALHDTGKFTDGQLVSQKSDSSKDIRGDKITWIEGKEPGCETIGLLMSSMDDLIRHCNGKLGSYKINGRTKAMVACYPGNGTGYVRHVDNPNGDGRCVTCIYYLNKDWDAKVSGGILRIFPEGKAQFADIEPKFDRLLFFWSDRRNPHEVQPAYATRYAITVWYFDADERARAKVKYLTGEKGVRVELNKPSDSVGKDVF

## CCOC(=O)CNC(=O)c1c(O)[nH]c(=O)[nH]c1=O [compound 22]
OGFOD1
  selectivity for OGFOD1 over PHD2, in words: did not manifest clear selectivity for OGFOD1 over PHD2

## Cn1c(O)c(C(=O)CCCc2ccccc2)c(=O)n(C)c1=O [compound 27]
OGFOD1
  relative potency of OGFOD1 inhibition in barbiturate SAR, in words: did not provide a substantial increase in potency

## CCC(O)=C1C(=O)CC(C(=O)O)CC1=O (stereo not drawn) [compound 4, prohexadione‐calcium, reference compound]
OGFOD1
  inhibition of OGFOD1 hydroxylation activity, in words: inhibition of OGFOD1

## Cn1c(O)c(C(=O)Cc2ccccc2)c(=O)n(C)c1=O [compound 25]
OGFOD1
  IC50: 2 µM
PHD2181-426
  inhibition of PHD2 hydroxylation activity, in words: Lack of inhibition

## Cc1ccc(CCC(=O)c2c(O)n(C)c(=O)n(C)c2=O)cc1
other
  melting point: 140 °C

## O=C(O)CNC(=O)c1nc(Cl)c2ccccc2c1O [compound 7, reference compound]
OGFOD1
  inhibition of OGFOD1 hydroxylation activity, in words: inhibited OGFOD1

## Cn1c(O)c(C(=O)CCCCc2ccccc2)c(=O)n(C)c1=O [compound 28]
OGFOD1
  relative potency of OGFOD1 inhibition in barbiturate SAR, in words: did not provide a substantial increase in potency

## CC(=O)C1CCCCC1=O (stereo not drawn) [compound 11, 2‐acetylcyclohexanone]
OGFOD1
  OGFOD1 inhibition in fragment-based screening, in words: poor inhibitors

## CC(=O)c1c(O)[nH]c(=S)[nH]c1=O [compound 19]
OGFOD1
  OGFOD1 inhibition in fragment-based screening, in words: did not substantially increase the potency

## Cn1c(O)c(C(=O)[C@H]2C[C@H]2c2ccccc2)c(=O)n(C)c1=O
other
  melting point: 111 °C

## CC(=O)c1c(O)cccc1O [compound 16, 2′,6′‐dihydroxyacetophenone]
OGFOD1
  OGFOD1 inhibition in fragment-based screening, in words: relatively poor OGFOD1 inhibitor

## O=C(O)CNC(=O)c1c(O)c2ccccc2n(Cc2ccccc2)c1=O [compound 9, reference compound]
OGFOD1
  inhibition of OGFOD1 hydroxylation activity, in words: inhibited OGFOD1

## Cn1c(O)c(C(=O)NCc2ccccc2)c(=O)n(C)c1=O [compound 46]
OGFOD1
  relative potency of OGFOD1 inhibition in barbiturate SAR, in words: had little effect

## CC(=O)c1c(O)n(C)c(=O)n(C)c1=O [compound 20]
OGFOD1
  OGFOD1 inhibition in fragment-based screening, in words: improved potency

## trinexapac‐ethyl [compound 5, reference compound]
OGFOD1
  inhibition of OGFOD1 hydroxylation activity, in words: inhibition of OGFOD1

## Cn1c(O)c(C(=O)C2Cc3ccccc3C2)c(=O)n(C)c1=O
other
  melting point: 120 °C

## Cn1c(O)c(C(=O)c2ccccc2)c(=O)n(C)c1=O [compound 24]
OGFOD1
  IC50: 30 µM
PHD2181-426
  inhibition of PHD2 hydroxylation activity, in words: Lack of inhibition

## O=C1CCCC(=O)C1C(=O)c1ccc(C(F)(F)F)cc1[N+](=O)[O-] [compound 1, nitisinone, reference compound]
OGFOD1
  inhibition of OGFOD1 hydroxylation activity, in words: is an OGFOD1 inhibitor

## CCOC(=O)CC(=O)OCC [compound 10, diethyl malonate]
OGFOD1
  OGFOD1 inhibition in fragment-based screening, in words: poor inhibitors

## Cn1c(O)c(C(=O)CCC2CCCCC2)c(=O)n(C)c1=O
other
  melting point: 58 °C

## CCn1c(O)c(C(=O)CCC2CCCC2)c(=O)n(CC)c1=O [compound 30]
OGFOD1
  relative potency of OGFOD1 inhibition in barbiturate SAR, in words: less potent than 29

## CC(=O)c1c(O)[nH]c(=O)[nH]c1=O [compound 18]
OGFOD1
  OGFOD1 inhibition in fragment-based screening, in words: improved potency

## Cc1cccc(CCC(=O)c2c(O)n(C)c(=O)n(C)c2=O)c1
other
  melting point: 131 °C

## CC(C)(C)OC(=O)c1ccc(-n2[nH]cc(-n3ccnn3)c2=O)nc1 [IOX4, reference compound]
[1]
  HIFα stabilization in HeLa cells, in words: inhibits the hydroxylation of HIFα, preventing proteasomal degradation

## CCOC(=O)CNC(=O)c1c(O)n(C)c(=O)n(C)c1=O [compound 23]
OGFOD1
  selectivity for OGFOD1 over PHD2, in words: did not manifest clear selectivity for OGFOD1 over PHD2

## O=C(CCC1CCCC1)c1c(O)n(C2CCCCC2)c(=O)n(C2CCCCC2)c1=O [compound 31]
OGFOD1
  relative potency of OGFOD1 inhibition in barbiturate SAR, in words: less potent than 29

## CC(CC(=O)c1c(O)n(C)c(=O)n(C)c1=O)c1ccccc1 (stereo not drawn)
other
  melting point: 100 °C

## Cc1nc(C(=O)NCC(=O)O)c(O)c2ccc(Oc3ccccc3)cc12 [compound 8, reference compound]
OGFOD1
  inhibition of OGFOD1 hydroxylation activity, in words: inhibited OGFOD1
